This experiment deals with T1, Bcl-2 protein (Recombinant Human Bcl-2 Protein) (Homo sapiens, UniProt P10415).
T1 construct: purchased Novus NBP2-34889
Put plainly: Binding evaluation of mixture library compounds to Bcl-2 using AS-MS (affinity selection mass spectrometry). The following applies: for ASMS ratio (%) n = 1: replicate n = 1; for ASMS ratio (%) n = 1 / ASMS ratio (%) n = 2: ASMS Ratio(%)=(A−C)/B×100; for ASMS ratio (%) n = 2: replicate n = 2. The gist of the method: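 Bcl-2 binding is scored from LC/MS signal retained with protein through gel-filtration spin columns, normalised to unfiltered and protein-free controls. Incubation: 20 μM protein, […] per compound, 1 h, 23° C.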

Where [1] appears, read: AS-MS on the mixture of 1200 library compounds.
The mark [2] stands for this setting: AS-MS, mixture of 1200 compounds, Bcl-2.

T1 sequence (P10415 whole entry): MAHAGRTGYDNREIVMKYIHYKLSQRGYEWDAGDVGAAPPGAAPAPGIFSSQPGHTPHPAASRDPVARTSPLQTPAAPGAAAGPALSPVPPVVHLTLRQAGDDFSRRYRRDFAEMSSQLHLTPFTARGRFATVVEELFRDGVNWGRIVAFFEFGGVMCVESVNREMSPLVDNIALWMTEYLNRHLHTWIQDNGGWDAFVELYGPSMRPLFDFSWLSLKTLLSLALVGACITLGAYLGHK

For `CCOc1cncc(C#Cc2cncc(C(=O)N3CCN(c4ccc(C(=O)NS(=O)(=O)c5ccc(NCCSc6ccccc6)c(C(F)(F)F)c5)cc4)CC3)c2)c1` [B2R032-01, 4-[4-[5-[2-(5-Ethoxypyridin-3-yl)ethynyl]pyridine-3-carbonyl]piperazin-1-yl]-N-[4-(2-phenylsulfanylethylamino)-3-(trifluoromethyl)phenyl]sulfonylbenzamide], the “ASMS ratio (%)” value reads like this: (n = 1) 6.4%; (n = 2) 0.0%.
On to `CCOc1cccc(-c2cc(CN3CCN(c4ccc(C(=O)NS(=O)(=O)c5ccc(NCCSc6ccccc6)c([N+](=O)[O-])c5)nn4)CC3)cc(OCC)c2)c1` [B2Q081-01, 6-[4-[[3-Ethoxy-5-(3-ethoxyphenyl)phenyl]methyl]piperazin-1-yl]-N-[3-nitro-4-(2-phenylsulfanylethylamino)phenyl]sulfonylpyridazine-3-carboxamide], for which, for the setting “AS-MS, mixture library, Bcl-2”, the “ASMS ratio (%) n = 1” value is −4.8% and the “ASMS ratio (%) n = 2” value is 0.6%.
Take `CCOc1cccc(C#Cc2cncc(C(=O)N3CCN(c4ccc(C(=O)N(C)CC56CC7CC(CC(C7)C5)C6)nn4)CC3)c2)c1` [B3A009-01, N-(1-Adamantylmethyl)-6-[4-[5-[2-(3-ethoxyphenyl)ethynyl]pyridine-3-carbonyl]piperazin-1-yl]-N-methylpyridazine-3-carboxamide]: under setting [1], the “ASMS ratio (%) n = 1” value is 0.6% and the “ASMS ratio (%) n = 2” value is on record as −0.3%.
As for `CCOc1cncc(-c2cc(C(=O)N3CCN(c4ccc(C(=O)NS(=O)(=O)C(C)(C)C)cc4)CC3)cc(C(F)(F)F)c2)c1` [B2L040-01, N-tert-Butylsulfonyl-4-[4-[3-(5-ethoxypyridin-3-yl)-5-(trifluoromethyl)benzoyl]piperazin-1-yl]benzamide], the “ASMS ratio (%)” value is −0.2% (n = 1) and 1.0% (n = 2).
As to `CCOc1cncc(-c2csc(C(=O)N3CCN(c4ccc(C(=O)NCC56CC7CC(CC(C7)C5)C6)cc4)CC3)c2)c1` [B1A024-01, N-(1-Adamantylmethyl)-4-[4-[4-(5-ethoxypyridin-3-yl)thiophene-2-carbonyl]piperazin-1-yl]benzamide], under setting [2], the “ASMS ratio (%) n = 1” value was 4.1% and the “ASMS ratio (%) n = 2” value worked out at 1.2%.
In the case of `CCOc1cccc(-c2ccc(CN3CCN(c4ccc(C(=O)Nc5ccc(OC)cc5)cc4)CC3)cc2C)c1` [B1O047-01, 4-[4-[[4-(3-Ethoxyphenyl)-3-methylphenyl]methyl]piperazin-1-yl]-N-(4-methoxyphenyl)benzamide], under setting [1], the “ASMS ratio (%) n = 1” value came to 4.1% and the “ASMS ratio (%) n = 2” value is 1.5%.
Take `CCOc1cccc(-c2cc(C(=O)N3CCN(c4ccc(C(=O)NS(C)(=O)=O)cc4)CC3)cc(C(C)(C)C)c2)c1` [B2I037-01, 4-[4-[3-tert-Butyl-5-(3-ethoxyphenyl)benzoyl]piperazin-1-yl]-N-methylsulfonylbenzamide]: under “AS-MS, mixture library, Bcl-2”, the “ASMS ratio (%) n = 1” value is reported as 0.0% and the “ASMS ratio (%) n = 2” value is given as 3.3%.
For `CCOc1cccc(-c2cc(CN3CCN(c4ccc(C(=O)N(C)CC56CC7CC(CC(C7)C5)C6)cc4)CC3)cc(C(F)(F)F)c2)c1` [B3A061-01, N-(1-Adamantylmethyl)-4-[4-[[3-(3-ethoxyphenyl)-5-(trifluoromethyl)phenyl]methyl]piperazin-1-yl]-N-methylbenzamide], the “ASMS ratio (%) n = 2” value under setting [1] is listed as 421.3%.
Take `CCOc1cccc(-c2cc(CN3CCN(c4ccc(C(=O)NS(=O)(=O)c5ccc(NCCSc6ccccc6)c([N+](=O)[O-])c5)cc4)CC3)cc(OC(F)(F)F)c2)c1` [B2Q063-01, 4-[4-[[3-(3-Ethoxyphenyl)-5-(trifluoromethoxy)phenyl]methyl]piperazin-1-yl]-N-[3-nitro-4-(2-phenylsulfanylethylamino)phenyl]sulfonylbenzamide]: where the note is “AS-MS, mixture library, Bcl-2”, the “ASMS ratio (%) n = 1” value worked out at 13.3% and the “ASMS ratio (%) n = 2” value is recorded as −25.5%.
As for `CCOc1cncc(-c2cc(OC)c(CN3CCN(c4ccc(C(=O)NS(=O)(=O)c5ccc(NCCSc6ccccc6)c([N+](=O)[O-])c5)cc4)CC3)c(OC)c2)c1` [B2Q060-01, 4-[4-[[4-(5-Ethoxypyridin-3-yl)-2,6-dimethoxyphenyl]methyl]piperazin-1-yl]-N-[3-nitro-4-(2-phenylsulfanylethylamino)phenyl]sulfonylbenzamide], where the note is “AS-MS, mixture library, Bcl-2”, the “ASMS ratio (%) n = 1” value was 0.0% and the “ASMS ratio (%) n = 2” value stood at 0.0%.
Consider `CCOc1cccc(-c2ccc(C(C)N3CCN(c4ccc(C(=O)NS(=O)(=O)c5ccc(NCCSc6ccccc6)c([N+](=O)[O-])c5)cc4)CC3)c(F)c2)c1` (centres unmarked) [B2Q099-01, 4-[4-[1-[4-(3-Ethoxyphenyl)-2-fluorophenyl]ethyl]piperazin-1-yl]-N-[3-nitro-4-(2-phenylsulfanylethylamino)phenyl]sulfonylbenzamide], for which the “ASMS ratio (%) n = 2” value (AS-MS, mixture library, Bcl-2) was determined as 0.0%.
As for `CCOc1cncc(-c2cc(CN3CCN(c4ccc(C(=O)NS(=O)(=O)c5ccc(NCCSc6ccccc6)c(C(F)(F)F)c5)cc4)CC3)cc(OC(F)(F)F)c2)c1` [B2R064-01, 4-[4-[[3-(5-Ethoxypyridin-3-yl)-5-(trifluoromethoxy)phenyl]methyl]piperazin-1-yl]-N-[4-(2-phenylsulfanylethylamino)-3-(trifluoromethyl)phenyl]sulfonylbenzamide], the “ASMS ratio (%)” value is reported as 4.2% (n = 1) and −7.4% (n = 2).
Consider `CCOc1cccc(-c2ccc(CN3CCN(c4ccc(C(=O)NS(=O)(=O)CCC(F)(F)F)cc4)CC3)c(OC)c2)c1` [B2N053-01, 4-[4-[[4-(3-Ethoxyphenyl)-2-methoxyphenyl]methyl]piperazin-1-yl]-N-(3,3,3-trifluoropropylsulfonyl)benzamide], for which the “ASMS ratio (%)” value (n = 1) turned out to be 0.0% and the “ASMS ratio (%)” value (n = 2) is recorded as 1.4%.
Take `CCOc1cccc(C#Cc2cc(C(=O)N3CCN(c4ccc(C(=O)NS(=O)(=O)c5ccc(NCCSc6ccccc6)c(C(F)(F)F)c5)cc4)CC3)cc(C(F)(F)F)c2)c1` [B2R041-01, 4-[4-[3-[2-(3-Ethoxyphenyl)ethynyl]-5-(trifluoromethyl)benzoyl]piperazin-1-yl]-N-[4-(2-phenylsulfanylethylamino)-3-(trifluoromethyl)phenyl]sulfonylbenzamide]: the “ASMS ratio (%)” value is, setting by setting: (n = 1) 18.0%; (n = 2) 0.0%.
For `CCOc1cccc(-c2cc(CN3CCN(c4ccc(C(=O)NCC(F)(F)F)nn4)CC3)cc(OC(F)(F)F)c2)c1` [B1K089-01, 6-[4-[[3-(3-Ethoxyphenyl)-5-(trifluoromethoxy)phenyl]methyl]piperazin-1-yl]-N-(2,2,2-trifluoroethyl)pyridazine-3-carboxamide], under setting [2], the “ASMS ratio (%) n = 1” value came to 2.0% and the “ASMS ratio (%) n = 2” value came to 1.0%.
Regarding `CCOc1cncc(-c2csc(CN3CCN(c4ccc(C(=O)NCC(F)(F)F)cc4)CC3)c2)c1` [B1K068-01, 4-[4-[[4-(5-Ethoxypyridin-3-yl)thiophen-2-yl]methyl]piperazin-1-yl]-N-(2,2,2-trifluoroethyl)benzamide], under setting [2], the “ASMS ratio (%) n = 1” value is on record as 2.6% and the “ASMS ratio (%) n = 2” value is recorded as −1.4%.
On to `CCOc1cccc(-c2cc(CN3CCN(c4ccc(C(=O)NS(=O)(=O)c5ccc(NCCSc6ccccc6)c([N+](=O)[O-])c5)cc4)CC3)cc(C(F)(F)F)c2)c1` [B2Q061-01, 4-[4-[[3-(3-Ethoxyphenyl)-5-(trifluoromethyl)phenyl]methyl]piperazin-1-yl]-N-[3-nitro-4-(2-phenylsulfanylethylamino)phenyl]sulfonylbenzamide], for which, for the setting “AS-MS, mixture library, Bcl-2”, the “ASMS ratio (%) n = 1” value was found to be 15.6% and the “ASMS ratio (%) n = 2” value is reported as −17.9%.
Take `CCOc1cccc(-c2csc(CN3CCN(c4ccc(C(=O)N(CC)CC)nn4)CC3)c2)c1` [B4J093-01]: where the note is “AS-MS, mixture library, Bcl-2”, the “ASMS ratio (%) n = 1” value is −2.1% and the “ASMS ratio (%) n = 2” value came to 0.6%.
As to `CCOc1cccc(-c2csc(C(=O)N3CCN(c4ccc(C(=O)NS(=O)(=O)C(C)(C)C)cc4)CC3)c2)c1` [B2L023-01, N-tert-Butylsulfonyl-4-[4-[4-(3-ethoxyphenyl)thiophene-2-carbonyl]piperazin-1-yl]benzamide], the “ASMS ratio (%)” value stood at 0.0% (n = 1) and 0.0% (n = 2).
With `CCOc1cncc(-c2cnn(-c3cc(C(=O)N4CCN(c5ccc(C(=O)NS(=O)(=O)C(C)(C)C)nn5)CC4)cc(C(F)(F)F)c3)c2)c1` [B2L022-01, N-tert-Butylsulfonyl-6-[4-[3-[4-(5-ethoxypyridin-3-yl)pyrazol-1-yl]-5-(trifluoromethyl)benzoyl]piperazin-1-yl]pyridazine-3-carboxamide], the “ASMS ratio (%)” value runs as follows: (n = 1) 0.0%; (n = 2) 0.0%.
With “6-[4-[[2-[2-(3-Ethoxyphenyl)ethynyl]phenyl]methyl]piperazin-1-yl]-N-propylpyridazine-3-carboxamide [B1M053-01]”, under setting [2], the “ASMS ratio (%) n = 1” value is −3.0% and the “ASMS ratio (%) n = 2” value was −3.1%.
With “6-[4-[[4-(5-Ethoxypyridin-3-yl)thiophen-2-yl]methyl]piperazin-1-yl]-N-propylpyridazine-3-carboxamide [B1M051-01]”, under setting [2], the “ASMS ratio (%) n = 1” value is recorded as 0.7% and the “ASMS ratio (%) n = 2” value was found to be 1.9%.
As to `CCOc1cccc(-c2ccc(C(=O)N3CCN(c4ccc(C(=O)N(C)CC56CC7CC(CC(C7)C5)C6)cc4)CC3)cc2C)c1` [B3A025-01, N-(1-Adamantylmethyl)-4-[4-[4-(3-ethoxyphenyl)-3-methylbenzoyl]piperazin-1-yl]-N-methylbenzamide], under setting [1], the “ASMS ratio (%) n = 1” value was found to be 15.7% and the “ASMS ratio (%) n = 2” value was −19.6%.
